One test deals with hDA2. As to the kind of experiment: Dopamine-2 receptor radioligand binding assay. On the set-up: species or system human. The following applies: [3H]spiperone. The protocol:
Specificity and selectivity for the dopamine-2 receptor of the dopamine analogues used to synthesize the somatostatin-dopamine chimers may be determined by a radioligand binding assay as follows.
Crude membranes were prepared by homogenization of frozen rat corpus striatum (Zivic Laboratories, Pittsburgh, Pa., USA) in 20 mL of ice-cold 50 mM Tris-HCl with a Brinkman Polytron cell disrupter (setting 6, 15 sec). Buffer was added to obtain a final volume of 40 mL, and the homogenate was centrifuged in a Sorval SS-34 rotor at 39,000 g for 10 minutes at 0-4° C. The resulting supernatant was decanted and discarded. The pellet was rehomogenized in ice-cold buffer, pre-incubated at 37° C. for 10 min, diluted, and centrifuged as before. The final pellet was resuspended in buffer and held on ice for the receptor binding assay.
For assay, aliquots of the washed membrane preparations and test compounds were incubated for 15 minutes (37° C.) with 0.25 nM [^3HI]spiperone (16.5 Ci.mmol, New England Nuclear, Boston, Mass., USA) in 50 mM Tris HCl, 120 mM NaCl, 5 mM KCl, 2 mM CaCl2, 1 mM MgCl2. The final assay volume was 1.0 mL. The incubations were terminated by rapid filtration through GF/B glass fibre filters using a Brandel filtration manifold. Each tube and filter was then washed three times with 5-mL aliquots of ice-cold buffer. Specific binding was defined as the total radioligand bound minus that bound in the presence of 1000 nM (+) butaclamol.
(§1) Using the discussed assays, the inhibition constants (Ki) for the five human somatostatin receptors (hSSTR1-hSSTR5) and the dopamine-2 receptor (hUTII and hDA2) were measured for the exemplified somatostatin-dopamine conjugates, as follows: […]

The target of a further test is T1, hsst5 (Homo sapiens, UniProt P35346).
T1 construct: expressed in transfected cells
T1 sequence (P35346 whole entry): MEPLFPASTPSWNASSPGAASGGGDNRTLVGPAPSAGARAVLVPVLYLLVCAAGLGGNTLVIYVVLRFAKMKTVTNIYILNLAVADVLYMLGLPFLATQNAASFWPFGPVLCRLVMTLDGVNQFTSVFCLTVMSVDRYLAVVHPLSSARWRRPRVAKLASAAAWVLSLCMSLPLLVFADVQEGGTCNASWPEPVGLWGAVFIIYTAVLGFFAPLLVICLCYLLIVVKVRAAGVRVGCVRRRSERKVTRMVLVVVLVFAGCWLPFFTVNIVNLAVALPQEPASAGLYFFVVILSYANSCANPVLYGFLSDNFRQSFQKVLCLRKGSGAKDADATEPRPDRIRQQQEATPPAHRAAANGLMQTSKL
Put plainly: Somatostatin receptor radioligand binding assay, hsst5. The following applies: CHO-K1 membranes, [125I-Tyr11]SS-14. The protocol:
(§2) Specificity and selectivity of the somatostatin analogues used to synthesize the somatostatin-dopamine chimers were determined by a radioligand binding assay on CHO-K1 cells stably transfected with each of the SSTR subtypes, as follows. Somatostatin analogs are also described in U.S. Patent Application Publication No. 02210006790. The complete coding sequences of genomic fragments of the SSTR 1 (e.g., Genbank accession No. M81829), SSTR 2 (e.g., Genbank accession No. M81830), SSTR 3 (e.g., Genbank accession No. L07062), and SSTR 4 (e.g., Genbank accession No. AL049651) genes and a cDNA clone for SSTR 5 (e.g., Genbank accession No. D16827) was subcloned into the mammalian expression vector pCMV (Life Technologies, Milano, Italy). Other SSTR sequences are known to the skilled artisan. Clonal cell lines stably expressing SSTR's 1-5 were obtained by transfection into CHO-K1 cells (ATCC, Manassas, Va., USA) using the calcium phosphate co-precipitation method (Davis L, et al., 1994 In: Basic methods in Molecular Biology, 2nd edition, Appleton & Lange, Norwalk, Conn., USA: 611-646). The plasmid pRSV-neo (ATCC) was included as a selectable marker. Clonal cell lines were selected in RPMI 1640 media containing 0.5 mg/mL of G418 (Life Technologies, Milano, Italy), ring cloned, and expanded into culture.
(§3) Membranes for in vitro receptor binding assays were obtained by homogenizing the CHO-K1 cells expressing the SSTR's subtypes in ice-cold 50 mM Tris-HCl and centrifuging twice at 39,000 g (10 min), with an intermediate resuspension in fresh buffer. The final pellets were resuspended in 10 mM Tris-HCl for assay.
(§4) For the SSTR 1, 3, 4, and 5 assays, aliquots of the membrane preparations were incubated 90 minutes at 25° C. with 0.05 nM [^125I-Tyr11]SS-14 in 50 mM HEPES (pH 7.4) containing 10 mg/mL BSA, 5 mM MgCl2, 200 KIU/mL Trasylol, 0.02 mg/mL bacitracin, and 0.02 mg/mL phenylmethylsuphonyl fluoride. The final assay volume was 0.3 mL.
(§5) For the SSTR 2 assay, 0.05 nM [^125I]MK-678 was employed as the radioligand and the incubation time was 90 minutes at 25° C. The incubations were terminated by rapid filtration through GF/C glass microfiber filters (Whatman Co.) (pre-soaked in 0.3% polyethylenimine) using a BRANDEL filtration manifold. Each tube and filter was washed three times with 5 mL aliquots of ice-cold buffer. Specific binding was defined as the total radioligand bound minus that bound in the presence of 1000 nM SS-14 for SSTR 1, 3, 4, and 5, or 1000 nM MK-678 for SSTR2.

The target in the next test is T2, hUTII (Homo sapiens, UniProt Q9UKP6).
T2 sequence (Q9UKP6 1-389): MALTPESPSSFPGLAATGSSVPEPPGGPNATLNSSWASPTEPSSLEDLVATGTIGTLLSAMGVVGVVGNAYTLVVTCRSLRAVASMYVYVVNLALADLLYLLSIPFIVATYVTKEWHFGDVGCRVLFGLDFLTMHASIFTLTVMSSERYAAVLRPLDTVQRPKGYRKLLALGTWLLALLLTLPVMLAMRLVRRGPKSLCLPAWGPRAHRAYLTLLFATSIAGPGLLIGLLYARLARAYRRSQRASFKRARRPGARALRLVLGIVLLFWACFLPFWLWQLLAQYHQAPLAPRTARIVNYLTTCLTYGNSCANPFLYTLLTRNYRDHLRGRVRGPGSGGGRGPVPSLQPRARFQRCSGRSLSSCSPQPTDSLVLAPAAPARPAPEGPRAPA
Put plainly: hUTII inhibition constant. Type of test: binding. As to the method:
as §1

The next test has as its target T3, hsst2 (Homo sapiens, UniProt P30874).
T3 construct: expressed in transfected cells
As to the kind of experiment: Somatostatin receptor radioligand binding assay, hsst2. The following applies: CHO-K1 membranes, [125I]MK-678. As to the method:
as §2, §3, §5

Another test concerns the target T4, hsst3 (Homo sapiens, UniProt P32745).
T4 construct: expressed in transfected cells
Put plainly: Somatostatin receptor radioligand binding assay, hsst3. As to the method:
as §2, §3, §4, §5, §1

[1] abbreviates: CHO-K1 membranes, [125I-Tyr11]SS-14, read-out: hsst3 Ki.

Structures are written as SMILES. Where two headings read alike, the source gives them in different places. Bridge positions count the residues as written; N and C are the ends. Square brackets hold non-standard residues; d marks the D form. Peptide text beside a SMILES is read from it. * marks the point of attachment. X1 = CCCN1C[C@H](CSCC(=O)*)C[C@@H]2c3cccc4[nH]cc(c34)C[C@H]21; Tyr(3-I) = N[C@@H](Cc1ccc(O)c(I)c1)C(=O)O; Dopa = N[C@@H](Cc1ccc(O)c(O)c1)C(=O)O; Abu = CC[C@H](N)C(=O)O

What is called Ki is the equilibrium dissociation constant of an inhibitor or competing ligand from its target.

T4 sequence (P32745 whole entry): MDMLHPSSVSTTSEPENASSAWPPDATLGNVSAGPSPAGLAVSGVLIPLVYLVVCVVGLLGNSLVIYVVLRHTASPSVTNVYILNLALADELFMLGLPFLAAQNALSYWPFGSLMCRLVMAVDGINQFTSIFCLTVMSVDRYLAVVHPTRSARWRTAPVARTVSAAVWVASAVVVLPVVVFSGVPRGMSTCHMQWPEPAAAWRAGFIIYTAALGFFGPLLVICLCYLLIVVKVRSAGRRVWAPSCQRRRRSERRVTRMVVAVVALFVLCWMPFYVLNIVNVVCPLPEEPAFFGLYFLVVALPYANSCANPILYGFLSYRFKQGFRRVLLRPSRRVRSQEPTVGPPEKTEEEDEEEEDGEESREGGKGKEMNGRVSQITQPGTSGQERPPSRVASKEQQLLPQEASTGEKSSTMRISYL
T3 sequence (P30874 whole entry): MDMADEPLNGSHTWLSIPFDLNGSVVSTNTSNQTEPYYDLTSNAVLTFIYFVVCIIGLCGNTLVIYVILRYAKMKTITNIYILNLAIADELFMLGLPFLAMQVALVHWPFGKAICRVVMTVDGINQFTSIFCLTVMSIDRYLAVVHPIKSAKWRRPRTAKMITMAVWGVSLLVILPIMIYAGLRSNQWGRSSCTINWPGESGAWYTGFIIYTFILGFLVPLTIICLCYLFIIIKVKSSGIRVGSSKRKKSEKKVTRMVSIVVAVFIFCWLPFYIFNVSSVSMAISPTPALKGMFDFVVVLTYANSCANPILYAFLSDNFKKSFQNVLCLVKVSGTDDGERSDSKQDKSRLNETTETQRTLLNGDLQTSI

Take `CCCN1C[C@H](CSCC(=O)NCCCC[C@@H](NC(=O)CSC[C@@H]2C[C@@H]3c4cccc5[nH]cc(c45)C[C@H]3N(CCC)C2)C(=O)N[C@H](Cc2ccccc2)C(=O)N[C@H]2CSSC[C@@H](C(=O)N[C@H](C(N)=O)[C@@H](C)O)NC(=O)[C@H]([C@@H](C)O)NC(=O)[C@H](CCCCN)NC(=O)[C@@H](Cc3c[nH]c4ccccc34)NC(=O)[C@H](Cc3ccc(O)c(I)c3)NC2=O)C[C@@H]2c3cccc4[nH]cc(c34)C[C@H]21` [Example 15]: the Ki at hDA2 turned out to be 18.3 nM; at hsst5 (read-out: hsst5 Ki), 6.29 nM.

Turning to `CCCN1C[C@H](CSCC(=O)NCCCC[C@@H](NC(=O)CSC[C@@H]2C[C@@H]3c4cccc5[nH]cc(c45)C[C@H]3N(CCC)C2)C(=O)N[C@H](Cc2ccc(O)cc2)C(=O)N[C@H](Cc2ccc(O)cc2)C(=O)N[C@H]2CSSC[C@@H](C(=O)N[C@H](C(N)=O)[C@@H](C)O)NC(=O)[C@H]([C@@H](C)O)NC(=O)[C@H](CCCCN)NC(=O)[C@@H](Cc3c[nH]c4ccccc34)NC(=O)[C@H](Cc3ccc(O)c(I)c3)NC2=O)C[C@@H]2c3cccc4[nH]cc(c34)C[C@H]21` [Example 16] (X1-[dK](X1)[dY][dY]C[Tyr(3-I)][dW]KTCT-NH2; disulfide 4-9), the Ki is 549 nM at hUTII (read-out: hUTII Ki); 0.16 nM at hsst2 (read-out: hsst2 Ki); 8.56 nM on hDA2; 76.4 nM at hsst3 (setting [1]); 7.43 nM on hsst5 (read-out: hsst5 Ki).

Consider `CCCN1C[C@H](CSCC(=O)NCCCC[C@H](NC(=O)CSC[C@@H]2C[C@@H]3c4cccc5[nH]cc(c45)C[C@H]3N(CCC)C2)C(=O)N[C@H](Cc2ccccc2)C(=O)N[C@H]2CSSC[C@@H](C(=O)N[C@H](C(N)=O)[C@@H](C)O)NC(=O)[C@H](CC)NC(=O)[C@H](CCCCN)NC(=O)[C@@H](Cc3c[nH]c4ccccc34)NC(=O)[C@H](Cc3ccc(O)cc3)NC2=O)C[C@@H]2c3cccc4[nH]cc(c34)C[C@H]21` [Example 17], for which the Ki was determined as 496 nM at hUTII (read-out: hUTII Ki); 0.18 nM on hsst2 (read-out: hsst2 Ki); 17.6 nM on hDA2; 106 nM on hsst3 (setting [1]); 54 nM at hsst5 (read-out: hsst5 Ki).

In the case of `CC[C@@H]1NC(=O)[C@H](CCCCN)NC(=O)[C@@H](Cc2c[nH]c3ccccc23)NC(=O)[C@H](Cc2ccc(O)cc2)NC(=O)[C@@H](NC(=O)[C@@H](Cc2ccccc2)NC(=O)[C@H](CCCCNC(=O)[C@@H](N)Cc2ccc(O)c(O)c2)NC(=O)[C@@H](N)Cc2ccc(O)c(O)c2)CSSC[C@@H](C(=O)N[C@H](C(N)=O)[C@@H](C)O)NC1=O` [Example 18] (H-[Dopa]K(Dopa)[dF]CY[dW]K[Abu]CT-NH2; disulfide 4-9), the Ki at hUTII (read-out: hUTII Ki) was determined as 1000 nM; at hsst2 (read-out: hsst2 Ki), 0.36 nM; on hDA2 it was 3000 nM; on hsst3 (setting [1]), 167 nM; on hsst5 (read-out: hsst5 Ki), 32 nM.

Regarding `CC[C@@H]1NC(=O)[C@H](CCCCN)NC(=O)[C@@H](Cc2c[nH]c3ccccc23)NC(=O)[C@H](Cc2ccc(O)cc2)NC(=O)[C@@H](NC(=O)[C@@H](Cc2ccccc2)NC(=O)[C@@H](N)Cc2ccc(O)c(O)c2)CSSC[C@@H](C(=O)N[C@H](C(N)=O)[C@@H](C)O)NC1=O` [Example 19], the Ki at hUTII (read-out: hUTII Ki) amounted to 2250 nM; on hsst2 (read-out: hsst2 Ki), 0.41 nM; on hDA2, 3000 nM; at hsst3 (setting [1]), 146 nM; on hsst5 (read-out: hsst5 Ki) it was 19.7 nM.

Consider `CC[C@@H]1NC(=O)[C@H](CCCCN)NC(=O)[C@@H](Cc2c[nH]c3ccccc23)NC(=O)[C@H](Cc2ccc(O)cc2)NC(=O)[C@@H](NC(=O)[C@@H](Cc2ccccc2)NC(=O)CN(C)C(=O)N[C@H]2C[C@@H]3c4cccc5[nH]cc(c45)C[C@H]3N(C)C2)CSSC[C@@H](C(=O)N[C@H](C(N)=O)[C@@H](C)O)NC1=O` [Example 20], for which affinity on hDA2 was put at a Ki of 95.2 nM.

With `CC[C@@H]1NC(=O)[C@H](CCCCN)NC(=O)[C@@H](Cc2c[nH]c3ccccc23)NC(=O)[C@H](Cc2ccc(O)cc2)NC(=O)[C@@H](NC(=O)[C@@H](Cc2ccccc2)NC(=O)CN(C)C(=O)N[C@H]2C[C@@H]3c4cccc5[nH]cc(c45)C[C@H]3N(C)C2)CSSC[C@@H](C(=O)N[C@H](C(N)=O)[C@@H](C)O)NC1=O` [Example 27], the Ki is 1280 nM at hUTII (hUTII Ki), 0.02 nM at hsst2 (hsst2 Ki), 140 nM on hsst3 and 22.8 nM on hsst5 (hsst5 Ki).

For `CCCN1C[C@H](CNC(=O)CCCC(=O)N[C@H](Cc2ccccc2)C(=O)N[C@H]2CSSC[C@@H](C(=O)N[C@H](C(N)=O)[C@@H](C)O)NC(=O)[C@H](CC)NC(=O)[C@H](CCCCN)NC(=O)[C@@H](Cc3c[nH]c4ccccc34)NC(=O)[C@H](Cc3ccc(O)cc3)NC2=O)C[C@@H]2c3cccc4[nH]cc(c34)C[C@H]21` [Example 29], the inhibition constant Ki at hsst2 (read-out: hsst2 Ki) is 0.14 nM; at hDA2 it was 226 nM.

For `CCCN1C[C@H](CSCC(=O)NCCN2CCN(CC(=O)NCCN3CCN(CC(=O)N[C@H](Cc4ccccc4)C(=O)N[C@H]4CSSC[C@@H](C(=O)N[C@H](C(N)=O)[C@@H](C)O)NC(=O)[C@H](C(C)C)NC(=O)[C@H](CCCCN)NC(=O)[C@@H](Cc5c[nH]c6ccccc56)NC(=O)[C@H](Cc5ccc(O)c(I)c5)NC4=O)CC3)CC2)C[C@@H]2c3cccc4[nH]cc(c34)C[C@H]21` [Example 37], the Ki on hUTII (read-out: hUTII Ki) stood at 421 nM; on hsst2 (read-out: hsst2 Ki), 1.26 nM; on hDA2, 126 nM; at hsst3 (setting [1]), 374 nM.

For `CC(C)[C@@H]1NC(=O)[C@H](CCCCN)NC(=O)[C@@H](Cc2c[nH]c3ccccc23)NC(=O)[C@H](Cc2ccc(O)c(I)c2)NC(=O)[C@@H](NC(=O)[C@@H](Cc2ccccc2)NC(=O)CN2CCN(CCNC(=O)CN3CCN(CCNC(=O)CSC[C@@H]4C[C@@H]5c6cccc7[nH]cc(c67)C[C@H]5N(C)C4)CC3)CC2)CSSC[C@@H](C(=O)N[C@H](C(N)=O)[C@@H](C)O)NC1=O` [Example 39], the Ki at hUTII (read-out: hUTII Ki) was 241 nM; on hsst2 (read-out: hsst2 Ki) it was 0.42 nM; on hDA2, 310 nM; at hsst3, 136 nM.

On to `CC(C)[C@@H]1NC(=O)[C@H](CCCCN)NC(=O)[C@@H](Cc2c[nH]c3ccccc23)NC(=O)[C@H](Cc2ccc(O)c(I)c2)NC(=O)[C@@H](NC(=O)[C@@H](Cc2ccccc2)NC(=O)COCCOCCNC(=O)CSC[C@@H]2C[C@@H]3c4cccc5[nH]cc(c45)C[C@H]3N(C)C2)CSSC[C@@H](C(=O)N[C@H](C(N)=O)[C@@H](C)O)NC1=O` [Example 41], for which the affinity on hDA2, expressed as Ki, was 217 nM.

These data come from patent US20110065632A1, “PHARMACEUTICAL COMPOSITIONS OF SOMATOSTATIN-DOPAMINE CONJUGATES” (priority 2008, published 2011).
